# In US20200378993A1, “MEDICAL USES OF APOLIPOPROTEIN A AND ACTIVATORS THEREOF” (FUNDACIÓN IMDEA ALIMENTACIÓN, priority 2017, published 2020):
# Legend:
# apolipoprotein A1 = experiment: ApoA1 immunodetection by Western blot; assay type: cell-based, human; conditions: RVX-208 (30 μM) versus DMSO carrier
# Procedure: FIG. 7. A) Proliferation curve in a viability assay carried out by means of XCELLigence technology. Growth of DLD1 cells treated with DMSO as the drug carrier and with Rvx-208 (30 μM). The significant differences existing in the slope of the graph, and therefore in the growth dynamics of the treated cells are shown in the right panel (****p-value<0.0001). B) Migration and invasion assays. The method followed was the same as the one described in FIG. 2 (*p-value=0.0407; ****p-value<0.0001). C) Expression levels of proteins E-cadherin and Vimentin in the presence and absence of Rvx-208. Analysis performed by means of quantitative PCR. The relative expression levels normalized with respect to the untreated control are shown. D) ABCA1, ApoA1, caveolin-1, and α-tubulin immunodetection by means of Western blot. α-tubulin acts as load control. The results of the cells treated with Rvx-208 (30 μM) or with the DMSO carrier are shown. E) Cholesterol flux in cells treated with Rvx-208. The inventors were able to confirm said results based on the treatment of DLD1 cells expressing ABCA1 with RVX-208 under the conditions already described in detail in Example 3. […] The levels of caveolin-1, a protein whose increased levels have been associated with increases in cell migration and invasion, were also analyzed in this experiment.
# DLD1 cells = experiment: Migration assay (Corning BioCoat Control plates); assay type: cell-based, human; conditions: RVX-208 30 μm 72 hours then 15 μM
# Procedure: Cell viability and proliferation assays were carried out by means of XCELLigence technology (ACEA Biosciences, Inc.) following the manufacturer's indications. Migration and invasion assays were carried out in Corning® BioCoat™ Control plates (#354578) and Corning® BioCoat™ Matrigel plates (#354480), respectively, following the manufacturer's indications. For the rescue assays, the cells were treated for 72 hours with 30 μM apabetalone (RVX-208; Biovision). Antibodies: ABCA1 (Ab18180, Abcam. 1:500); caveolin-1 (Ab2910, Abcam. 1:1000); α-tubulin (T9026, Sigma 1:1000). The DLD1 cells correspond to a human colorectal cancer-derived adherent epithelial cell line (ATCC® CCL-221™). The stable cell lines capable of overexpressing ABCA1 were obtained by means of transduction with genetically modified lentivirus.
# Following the same treatment regimen, the inventors carried out migration and invasion assays.
# The same assays were repeated by replacing ApoA1 with a treatment with RVX-208. In this case, DLD1 cells were pre-treated for 72 hours before the start of the experiment with RVX-208 at a concentration of 30 μm and were subjected to a treatment with 15 μM of RVX-208 during the development of the experiments.
smiles,measurement,setting,value
"COc1cc(OC)c2c(=O)[nH]c(-c3cc(C)c(OCCO)c(C)c3)nc2c1 [RVX-208, 2-(4-(2-hydroxyethoxy)-3,5-dimethylphenyl)-5,7-dimethoxyquinazolin-4(3H)-one]",apolipoprotein A1 expression levels,apolipoprotein A1,increase in apolipoprotein A1 expression levels
same,migratory capacity,DLD1 cells,significant decreases the migratory and invasive capacity
